Counter-ions that a name gives are not always drawn. Like-named read-outs stand apart in the source and are kept apart here.
Experiments:
[1] = tested on: patients with advanced solid tumors; parameters: species or system human; conditions: in vivo
plasma S1P = conditions: at therapeutically efficacious drug doses; ref [34]; cited from earlier work
SK2 = conditions: ref [17], [21], cited from earlier work
[2] = tested on: plasma S1P and dihydroC16-ceramide; experiment: Plasma sphingolipid pharmacodynamics; assay type: in vivo, human
[3] = cited from earlier work
tumors = conditions: mouse models; ref [21]; cited from earlier work
[4] = Plasma drug exposure of ABC294640; assay type: in vivo, human; conditions: for Trough drug level: Day 28 prior to drug administration; for AUC(0-inf) / AUC(0-t): oral
[5] = 250 and 500 mg treatment groups

SMILES: O=C(NCc1ccncc1)C12CC3CC(C1)CC(c1ccc(Cl)cc1)(C3)C2 [ABC294640, 4-pyridinylmethyl-3-(4-chlorophenyl)adamantinecarboxamide, hydrochloride salt]
- Patients with psychiatric disorders ([1]; human): 2 patients
- Patients with treatment-related nervous system disorders ([1]; human): 6 patients
- Fatigue (treatment-related adverse event) ([1]; human, 28 day): 0 n (%)
- Creatinine Increase (treatment-related adverse event) ([1]; human, 28 days): 0 n (%)
- Fatigue (treatment-related adverse event) ([1]; human, 28 days): 5 (24) n (%)
- Hyperbilirubinemia (treatment-related adverse event) ([1]; human, 28 days): 0 n (%)
- Vision Change (treatment-related adverse event) ([1]; human, 28 days): 0 n (%)
- Recommended Phase II Dose ([1]; human, po, 28 day cycles, continuous): 500 mg bid
- Tolerability of dose level [1]: not to be tolerable
- Reduction of plasma S1P levels (plasma S1P): up to 50%
- Ki (SK2; read-out: Ki, SK2): 9 µM
- Ki, SK2 (SK2): 3.4 µg/mL
- Mode of SK2 inhibition (SK2): competitive with respect to sphingosine
- Maximum plasma S1P decrease ([2]; 250 mg (Days 1 and 28, 250 mg qd with 250 mg bid combined), n=10): 51±6%
- Maximum plasma S1P decrease ([2]; 500 mg (Days 1 and 28 combined), n=5): 46±9%
- Maximum plasma S1P decrease ([2]; 750 mg (Days 1 and 28 combined), n=2): 54±14%
- Time of maximum elevation of plasma dihydroC16-ceramide [2, 5]: 8 to 12 h
- Time of return of plasma dihydroC16-ceramide to baseline [2, 5]: 24 h
- Time of minimum plasma S1P level after treatment ([2]; patients, all doses): 12 h
- Time of recovery of plasma S1P to baseline ([2]; patients, all doses): ≤ 24 h
- half-life ([3]; across several species, extensive preclinical work): approximately 4 hours
- Half-life predicted by animal data ([3]; animal data): ~ 4.5 hours
- Dose at which single-agent antitumor activity is typically apparent (tumors): ≥ 25 mg/kg/day
- Trough drug level ([4]; 250 mg bid, n=3): 0.29 ± 0.15 µg/mL
- Trough drug level ([4]; 250 mg qd, n=5): 0.20 ± 0.34 µg/mL
- Ratio AUC0-T at Day 28 to AUCINF at Day 1 ([4]; 500 mg bid): 1.25
- Trough drug level ([4]; 500 mg bid, n=5): 1.82 ± 0.85 µg/mL
- Ratio AUC0-T at Day 28 to AUCINF at Day 1 ([4]; 750 mg bid): 1.85
- Trough drug level ([4]; 750 mg bid, n=1): 4.48 µg/mL
- AUC(0-inf) ([4]; human, plasma, 250 mg): 15200 ± 8230 ng·h/mL
- AUC(0-t) ([4]; human, plasma, 250 mg): 17800 ± 15200 ng·h/mL
- AUC(0-inf) ([4]; human, plasma, 500 mg): 40700 ± 28000 ng·h/mL
- AUC(0-t) ([4]; human, plasma, 500 mg): 50800 ± 11300 ng·h/mL
- Tmax ([4]; human, plasma, po): 1 to 2 h
- half-life ([4]; human, plasma, po): 5 to 15 h
